The values below come from patent US20100256230A1, “1-BUTANE ACID DERIVATIVES, PHARMACEUTICAL COMPOSITIONS CONTAINING SAID DERIVATIVES AND THE USE THEREOF” (SCHEBO BIOTECH AG, priority 2001, published 2010).

In one test the test system is Novikoff hepatoma cells. The test is described as follows: Proliferation inhibition of Novikoff hepatoma cells (cell count after four days of cultivation). The settings on record: Novikoff hepatoma cells, 100,000 cells seeded per 25 cm2 bottle, counted after four days of cultivation, compared to control without compound; FIGS. 1 and 2. Format: cell-based. The procedure: The cell density was measured after four days of cultivation.
The cell density was measured after 4 days of cultivation.
The Novikoff hepatoma cells utilized in this example were obtained from the tumor bank of the Deutsches Krebsforschungszentrum, Heidelberg (Cancer Research 1951, 17, 1010). 100,000 cells each are seeded per 25 cm^2 cultivation bottle. The substance according to Example 1 of the invention, dissolved in a solvent suitable for use in cell cultures, for instance water, diluted ethanol, dimethylsulfoxide or the like, was added in an increasing concentration to the culture medium, e.g. L-cycloserine (compound 16) or dehydrothreonine (compound 2) in a concentration range of 80 μM-5,000 μM; carbomethoxypropionyl cyanide (compound 13) in a range of 100 μM-300 μM. After four days of cultivation, the number of cells per bottle was counted. The results are shown in FIGS. 1 and 2, and a dose dependence of the proliferation inhibition compared to the control sample without addition of a compound according to the invention can be seen.

Test [1] relates to glycolysis of Novikoff-Zellen hepatoma cells. The test is described as follows: Inhibition of glycolysis of Novikoff cells (lactate produced for glucose consumed). It is filed as cell-based.

Turning to `N[C@H]1CONC1=O` [L-glycoserine, L-cycloserine], the “inhibition of tumor cell growth (proliferation inhibition, cell density)” value in the test with Novikoff hepatoma cells is “dose-dependent inhibition of tumor cell growth”.
Take `COC(=O)CCC(=O)C#N` [carbomethoxypropionyl cyanide]: the “inhibition of tumor cell growth (proliferation inhibition, cell density)” value in the test with Novikoff hepatoma cells is listed as “dose-dependent inhibition of tumor cell growth”. The “inhibition of glycolysis flow, lactate produced for glucose consumed” value is on record as “massively inhibits the glycolysis flow” in test [1] (FIG. 3) and “inhibition of glycolysis” in test [1] (FIG. 3, listed as CMPC).
